From patent publication US9029401B2 (The Regents of the University of California, priority 2011, dated 2015)
Like-named read-outs stand apart in the source and are kept apart here.

Columns and labels:
Raf-1 = Raf-1 (Homo sapiens (Human), UniProt P04049); assay: In vitro kinase inhibition assay (ADP-Glo), Raf-1; format: biochemical
Protocol: (§1) All measurements included background and control (vehicle only) luminescence readings.
(§2) The kinases Raf-1 and b-Raf (V600E), and their corresponding substrate, MEK1, and Full length recombinant CRAF kinase and its respective substrate, recombinant MEK1, were purchased from US Biological (Swampscott, Mass.). All assays were performed under identical conditions for the Raf isozymes: 10 nM Enzyme, 1 μM MEK1, 10 μM ATP, at 22° C. for 2 hours. […] IC50 values were obtained by determining the change in the ADP production (luminescence signal) at various inhibitor concentrations as compared to the control assay. Individual data sets were performed in duplicate and each IC50 was determined by the average and standard deviation of three separate experiments.
as §2, with “Full” for “The kinases Raf-1 and b-Raf (V600E), and their corresponding substrate, MEK1, and Full”, “at” for “under identical conditions for the Raf isozymes:”, “CRAF,” for “Enzyme,”, “(luminescent” for “(luminescence”, “mean” for “average”

b-Raf (V600E) = b-Raf (V600E) (Homo sapiens (Human), UniProt P15056, V600E); assay: In vitro kinase inhibition assay (ADP-Glo), b-Raf (V600E); format: biochemical
Chain of b-Raf (V600E) (P15056 whole entry V600E): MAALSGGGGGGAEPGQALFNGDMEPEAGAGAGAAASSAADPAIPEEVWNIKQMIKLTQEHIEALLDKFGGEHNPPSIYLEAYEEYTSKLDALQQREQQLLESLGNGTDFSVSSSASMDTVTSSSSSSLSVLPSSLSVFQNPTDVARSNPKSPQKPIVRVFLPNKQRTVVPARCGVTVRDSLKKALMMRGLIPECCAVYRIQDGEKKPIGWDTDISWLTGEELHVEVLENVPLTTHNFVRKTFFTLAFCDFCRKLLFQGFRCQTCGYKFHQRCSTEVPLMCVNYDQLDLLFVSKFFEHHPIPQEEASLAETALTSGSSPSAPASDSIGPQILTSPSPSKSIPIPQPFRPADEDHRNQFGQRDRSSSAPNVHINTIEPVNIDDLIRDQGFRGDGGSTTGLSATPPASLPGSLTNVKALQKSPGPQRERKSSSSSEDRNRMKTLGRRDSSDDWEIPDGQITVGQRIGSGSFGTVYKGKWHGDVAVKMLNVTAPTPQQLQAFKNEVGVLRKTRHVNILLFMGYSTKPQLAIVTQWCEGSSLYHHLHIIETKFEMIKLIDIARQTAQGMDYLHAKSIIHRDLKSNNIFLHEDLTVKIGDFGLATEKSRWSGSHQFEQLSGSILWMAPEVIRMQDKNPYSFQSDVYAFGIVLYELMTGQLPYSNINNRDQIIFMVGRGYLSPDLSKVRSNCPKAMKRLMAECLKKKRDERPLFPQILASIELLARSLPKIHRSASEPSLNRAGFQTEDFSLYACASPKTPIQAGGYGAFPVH
Protocol: as §1, §2

human sEH = human sEH (Homo sapiens (Human), UniProt P34913); assay: Inhibitory activity against human sEH; format: biochemical
Chain of human sEH (P34913 whole entry): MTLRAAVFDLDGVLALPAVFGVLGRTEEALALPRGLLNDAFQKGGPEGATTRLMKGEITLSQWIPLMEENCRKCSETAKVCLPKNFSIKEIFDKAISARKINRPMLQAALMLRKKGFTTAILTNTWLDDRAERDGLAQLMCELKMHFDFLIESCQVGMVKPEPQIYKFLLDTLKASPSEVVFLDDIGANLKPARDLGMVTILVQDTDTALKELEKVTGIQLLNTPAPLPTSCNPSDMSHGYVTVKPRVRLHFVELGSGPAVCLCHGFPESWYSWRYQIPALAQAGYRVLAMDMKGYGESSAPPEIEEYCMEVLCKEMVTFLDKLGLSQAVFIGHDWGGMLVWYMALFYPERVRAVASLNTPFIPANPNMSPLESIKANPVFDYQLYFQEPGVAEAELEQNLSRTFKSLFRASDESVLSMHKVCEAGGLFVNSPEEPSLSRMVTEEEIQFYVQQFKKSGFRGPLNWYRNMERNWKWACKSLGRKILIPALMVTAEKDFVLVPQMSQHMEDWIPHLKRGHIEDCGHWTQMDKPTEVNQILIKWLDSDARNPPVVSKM

HepG2 hepatoma cell line = assay: MTT cell viability assay, HepG2; format: cell-based; conditions: for EC50: Homo sapiens, read-out: EC50 on cell viability, HepG2 (Liver)
Protocol: (§3) Cell-based assays were performed using the described cell lines, grown in the appropriate Growth Mediums containing 10% fetal bovine serum and 1% penicillin-streptomycin. Cancer cells were plated at 15,000 cells/well in 96-well plates and allowed to attach overnight. […] Cell viability was determined after 72 hours incubation periods. To determine anti-proliferative effects of inhibitors, cellular proliferation was determined using the colorimetric MTT cell viability assay kit, as described by the manufacture (ATCC).

Huh-7 hepatoma cell line = assay: MTT cell viability assay, Huh-7; format: cell-based; conditions: Homo sapiens, read-out: EC50 on cell viability, Huh-7 (Liver)
Protocol: as §3

[1] = system: SKBR3 breast cancer cell line; assay: MTT cell viability assay, SKBR3; format: cell-based; conditions: Homo sapiens, read-out: EC50 on cell viability, SKBR3 (Breast)
Protocol: (§4) Cell-based assays were performed using the described cell lines, grown in the appropriate Growth Mediums containing 10% fetal bovine serum and 1% penicillin-streptomycin. Cancer cells were plated at 15,000 cells/well in 96-well plates and allowed to attach overnight. Inhibitors were dissolved in DMSO and then diluted to concentrations ranging from 0.1-25 μM with a final DMSO concentration of 0.1%. Cell viability was determined after 72 hours incubation periods. To determine anti-proliferative effects of inhibitors, cellular proliferation was determined using the colorimetric MTT cell viability assay kit, as described by the manufacture (ATCC).

[2] = system: ACHN renal cell carcinoma cell line; assay: MTT cell viability assay, ACHN; format: cell-based; conditions: Homo sapiens, 72 h, read-out: EC50 on cell viability, ACHN (Kidney)
Protocol: as §3

[3] = system: PC-3 prostate cancer cell line; assay: MTT cell viability assay, PC-3; format: cell-based; conditions: 72 h, read-out: EC50 on cell viability, PC-3 (Prostate)
Protocol: as §4

[4] = system: T47D breast cancer cell line; assay: MTT cell viability assay, T47D; format: cell-based; conditions: Homo sapiens, 72 hours incubation
Protocol: as §4

[5] = 10 nM enzyme, 1 μM MEK1, 10 μM ATP, 22° C., 2 hours, read-out: Raf-1 IC50

Chain of Raf-1 (P04049 whole entry): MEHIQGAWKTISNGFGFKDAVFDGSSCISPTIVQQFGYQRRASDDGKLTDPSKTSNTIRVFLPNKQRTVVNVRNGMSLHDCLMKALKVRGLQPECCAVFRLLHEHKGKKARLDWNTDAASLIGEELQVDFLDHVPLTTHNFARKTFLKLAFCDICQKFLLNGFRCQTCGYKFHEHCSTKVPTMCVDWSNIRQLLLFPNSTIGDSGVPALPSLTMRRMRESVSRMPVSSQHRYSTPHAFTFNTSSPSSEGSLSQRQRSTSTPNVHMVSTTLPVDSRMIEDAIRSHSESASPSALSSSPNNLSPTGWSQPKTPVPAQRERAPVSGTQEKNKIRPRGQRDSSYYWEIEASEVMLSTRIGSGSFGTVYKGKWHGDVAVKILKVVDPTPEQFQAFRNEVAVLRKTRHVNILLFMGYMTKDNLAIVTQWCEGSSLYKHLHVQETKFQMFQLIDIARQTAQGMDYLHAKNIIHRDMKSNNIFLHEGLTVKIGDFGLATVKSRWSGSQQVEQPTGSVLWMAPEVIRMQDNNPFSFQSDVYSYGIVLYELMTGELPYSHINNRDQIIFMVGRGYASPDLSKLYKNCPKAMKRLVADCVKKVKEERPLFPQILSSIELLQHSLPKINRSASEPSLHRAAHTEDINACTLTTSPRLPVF

`CC(C)(C)OC(=O)c1cc(O[C@H]2CC[C@@H](NC(=O)Nc3ccc(Cl)c(C(F)(F)F)c3)CC2)ccn1` [Compound 2318, cis-4-{4-[3-(4-Chloro-3-trifluoromethyl-phenyl)-ureido]-cyclohexyloxy}-pyridine-2-carboxylic acid tert-butyl ester] was tested, and the inhibition at 10 µM (Raf-1; read-out: Raf-1 % inhibition, at 10 μM concentration) was 54% and the inhibition at 10 µM (b-Raf (V600E); at 10 μM concentration) was 51%.

Compound `O=C(Nc1ccc(OC(F)(F)F)cc1)N[C@H]1CC[C@H](Oc2ccnc(C(=O)N3CCCC3)c2)CC1` [Compound 2578, trans-1-{4-[2-(Pyrrolidine-1-carbonyl)-pyridin-4-yloxy]-cyclohexyl}-3-(4-trifluoromethoxy-phenyl)-urea] has an IC50 (human sEH; read-out: Human sEH IC50) of 0.5 nM.

`CNC(=O)c1ccc(O[C@H]2CC[C@@H](NC(=O)Nc3ccc(OC(F)(F)F)cc3)CC2)cc1` [Compound 2228, cis-N-Methyl-4-{4-[3-(4-trifluoromethoxy-phenyl)-ureido]-cyclohexyloxy}-benzamide] showed an IC50 (Raf-1) greater than 10000 nM.

`CCN(CC)C(=O)c1cc(O[C@H]2CC[C@H](NC(=O)Nc3ccc(Cl)c(C(F)(F)F)c3)CC2)ccn1` [Compound 2574, trans-4-{4-[3-(4-Chloro-3-trifluoromethyl-phenyl)-ureido]-cyclohexyloxy}-pyridine-2-carboxylic acid diethylamide] was tested, and the IC50 (human sEH; read-out: Human sEH IC50) was 0.5 nM and the IC50 (Raf-1; [5]) was greater than 10000 nM.

Work on `CNC(=O)c1cc(O[C@H]2CC[C@H](NC(=O)Nc3ccc(OC(F)(F)F)cc3)CC2)ccn1` [Compound 2575, trans-4-{4-[3-(4-Trifluoromethoxy-phenyl)-ureido]-cyclohexyloxy}-pyridine-2-carboxylic acid methylamide] yielded an IC50 (human sEH; read-out: Human sEH IC50) of 0.5 nM and an IC50 (Raf-1; [5]) greater than 10000 nM.

`N#Cc1ccc(O[C@H]2CC[C@H](NC(=O)Nc3ccc(Cl)c(C(F)(F)F)c3)CC2)cc1` [Compound 2182, trans-1-(4-Chloro-3-trifluoromethyl-phenyl)-3-[4-(4-cyano-phenoxy)-cyclohexyl]-urea] showed an IC50 (human sEH) of 14.6 nM.

`O=C(Nc1ccc(C(F)(F)F)cc1)N[C@H]1CC[C@H](Oc2ccc(C(=O)O)cc2)CC1` [Compound 2372, trans-4-{4-[3-(4-Trifluoromethyl-phenyl)-ureido]-cyclohexyloxy}-benzoic acid] was tested, and the IC50 (human sEH; read-out: Human sEH IC50) was 0.9 nM and the IC50 (Raf-1; [5]) was greater than 10000 nM.

Compound `CNC(=O)c1ccc(O[C@H]2CC[C@H](NC(=O)Nc3ccc(Cl)c(C(F)(F)F)c3)CC2)cc1` [Compound 2253, trans-4-{4-[3-(4-Chloro-3-trifluoromethyl-phenyl)-ureido]-cyclohexyloxy}-N-methyl-benzamide] has an IC50 (human sEH; read-out: Human sEH IC50) of 0.5 nM.

For `O=C(Nc1ccc(Cl)c(C(F)(F)F)c1)N[C@H]1CC[C@H](Oc2ccc(C(F)(F)F)cn2)CC1` [Compound 2288, trans-1-(4-Chloro-3-trifluoromethyl-phenyl)-3-[4-(5-trifluoromethyl-pyridin-2-yloxy)-cyclohexyl]-urea], the IC50 (human sEH; read-out: Human sEH IC50) was 9 nM, the IC50 (Raf-1; [5]) was greater than 10000 nM and the IC50 (b-Raf (V600E)) was greater than 10000 nM.

With `N#Cc1ccc(O[C@H]2CC[C@H](NC(=O)Nc3ccc(Cl)cc3)CC2)cc1` [Compound 2580, trans-1-(4-Chloro-phenyl)-3-[4-(4-cyano-phenoxy)-cyclohexyl]-urea] the IC50 (human sEH; read-out: Human sEH IC50) was 0.5 nM.

With `CC(C)(C)OC(=O)c1ccc(O[C@H]2CC[C@H](NC(=O)Nc3ccc(Cl)c(C(F)(F)F)c3)CC2)cn1` [Compound 2315, trans-5-{4-[3-(4-Chloro-3-trifluoromethyl-phenyl)-ureido]-cyclohexyloxy}-pyridine-2-carboxylic acid tert-butyl ester] the IC50 (human sEH; read-out: Human sEH IC50) was 0.5 nM and the IC50 (Raf-1; [5]) was greater than 10000 nM.

`CCOC(=O)c1ccc(O[C@H]2CC[C@@H](NC(=O)Nc3ccc(OC(F)(F)F)cc3)CC2)cc1` [Compound 1612, reference compound] showed an IC50 (human sEH; read-out: Human sEH IC50) of 3.4 nM.

For `CNC(=O)c1cc(Oc2ccc(NC(=O)NC34CC5CC(CC(C5)C3)C4)cc2)ccn1` [Compound 2287, 4-[4-(3-Adamantan-1-yl-ureido)-phenoxy]-pyridine-2-carboxylic acid methylamide], the IC50 (human sEH; read-out: Human sEH IC50) was 0.5 nM, the IC50 (Raf-1; [5]) was greater than 10000 nM and the IC50 (b-Raf (V600E)) was greater than 10000 nM.

Compound `N#Cc1ccc(O[C@H]2CC[C@H](NC(=O)Nc3ccc(OC(F)(F)F)cc3)CC2)cc1` [Compound 2581, trans-1-[4-(4-Cyano-phenoxy)-cyclohexyl]-3-(4-trifluoromethoxy-phenyl)-urea] has an IC50 (human sEH; read-out: Human sEH IC50) of 0.5 nM.

`CNC(=O)c1cc(O[C@H]2CC[C@@H](NC(=O)Nc3ccc(Cl)c(C(F)(F)F)c3)CC2)ccn1` [Compound 2319, cis-4-{4-[3-(4-chloro-3-trifluoromethyl-phenyl)-ureido]-cyclohexyloxy}-pyridine-2-carboxylic acid methylamide] showed an IC50 (human sEH; read-out: Human sEH IC50) of 0.5 nM, an EC50 (HepG2 hepatoma cell line; HepG2, MTT, 72 hours incubation) of 7500 nM and an EC50 (Huh-7 hepatoma cell line; Huh-7, MTT, 72 hours incubation) of 8500 nM. The EC50 ([1]; SK-BR-3, MTT, 72 hours incubation) was 8000 nM.

In the case of `N#Cc1ccc(O[C@H]2CC[C@H](NC(=O)Nc3ccc(C(F)(F)F)cc3)CC2)cc1` [Compound 2579, trans-1-[4-(4-Cyano-phenoxy)-cyclohexyl]-3-(4-trifluoromethyl-phenyl)-urea], the IC50 (human sEH; read-out: Human sEH IC50) is reported as 0.5 nM.

Work on `CC(C)(C)OC(=O)c1cc(O[C@H]2CC[C@H](NC(=O)Nc3ccc(Cl)c(C(F)(F)F)c3)CC2)ccn1` [Compound 2280, trans-4-{4-[3-(4-Chloro-3-trifluoromethyl-phenyl)-ureido]-cyclohexyloxy}-pyridine-2-carboxylic acid tert-butyl ester] yielded an IC50 (b-Raf (V600E)) greater than 10000 nM.

Compound `CNC(=O)c1cc(Oc2ccc(NC(=O)Nc3ccc(Cl)c(C(F)(F)F)c3)cc2)ccn1` [Sorafenib, reference compound] has an EC50 (Huh-7 hepatoma cell line; Huh-7, 72 h) of 4200 nM, an EC50 [2] of 4000 nM and an EC50 [3] of 5500 nM. For the same compound, the EC50 [4] was 3000 nM and the EC50 ([1]; SK-BR-3, 72 h) was 6500 nM.

For `O=C(Nc1ccc(OC(F)(F)F)cc1)N[C@H]1CC[C@H](Oc2ccc(C(=O)O)cc2)CC1` [Compound 1728, trans-4-{4-[3-(4-Trifluoromethoxy-phenyl)-ureido]-cyclohexyloxy}-benzoic acid], the “Effect on Hep G2 cell viability (dose dependence)” value (HepG2 hepatoma cell line; FIG. 2) was “limited effect”, the “Effect on Hep G2 cell viability (dose dependence)” value (HepG2 hepatoma cell line; FIG. 4) was “limited effect” and the EC50 (HepG2 hepatoma cell line; HepG2, 72 h) was 15000 nM. The “Effect on sunitinib's ability to kill cancer cells” value (HepG2 hepatoma cell line; administered in combination with sunitinib, Hep G2) was “potentiates”, the EC50 (Huh-7 hepatoma cell line; Huh-7, 72 h) was 20000 nM and the EC50 [2] was 15000 nM.

`O=C(Nc1ccc(Cl)c(C(F)(F)F)c1)N[C@H]1CC[C@H](Oc2ccc(C(=O)O)cc2)CC1` [Compound 2221, trans-4-{4-[3-(4-Chloro-3-trifluoromethyl-phenyl)-ureido]-cyclohexyloxy}-benzoic acid] gave an IC50 (human sEH) of 0.5 nM and an IC50 (b-Raf (V600E)) greater than 10000 nM.

Compound `O=C(Nc1ccc(Cl)cc1)N[C@H]1CC[C@H](Oc2ccc(C(=O)O)cc2)CC1` [Compound 2084, trans-4-{4-[3-(4-Chloro-phenyl)-ureido]-cyclohexyloxy}-benzoic acid] has an IC50 (human sEH; read-out: Human sEH IC50) of 5.5 nM and an IC50 (Raf-1; [5]) greater than 10000 nM.

`O=C(NC12CC3CC(CC(C3)C1)C2)N[C@H]1CC[C@H](Oc2ccc(C(=O)O)cc2)CC1` [Compound 1471, reference compound] gave an EC50 [2] greater than 25000 nM.

`CCN(CC)C(=O)c1cc(O[C@H]2CC[C@H](NC(=O)Nc3ccc(OC(F)(F)F)cc3)CC2)ccn1` [Compound 2577, trans-4-{4-[3-(4-Trifluoromethoxy-phenyl)-ureido]-cyclohexyloxy}-pyridine-2-carboxylic acid diethylamide] gave an IC50 (human sEH; read-out: Human sEH IC50) of 0.5 nM.

For `CNC(=O)c1ccc(O[C@H]2CC[C@H](NC(=O)Nc3ccc(Cl)c(C(F)(F)F)c3)CC2)cn1` [Compound 2316, trans-5-{4-[3-(4-Chloro-3-trifluoromethyl-phenyl)-ureido]-cyclohexyloxy}-pyridine-2-carboxylic acid methylamide], the IC50 (human sEH; read-out: Human sEH IC50) was 0.5 nM, the IC50 (Raf-1; [5]) was 175 ± 20 nM and the IC50 (b-Raf (V600E)) was 1500 nM.
